Assay results from patent US20110059947A1, “ALPHA 7 NICOTINIC AGONISTS AND ANTIPSYCHOTICS” (Targacept, Inc., priority 2008, published 2011).

Experiments:
[1] = tested on: db/db mice; assay: Plasma glucose and body weight in obese db/db mice; assay type: in vivo; details: 1 mg/kg
[2] = tested on: th(tk-)/th(tk-) mice; assay: Prepulse inhibition (PPI) and acoustic startle in th(tk-)/th(tk-) and control mice; assay type: in vivo
[3] = tested on: th(tk-)/th(tk-) mice; assay: Social behavior, nonsocial autogrooming and open field activity; assay type: in vivo; details: 1 mg/kg i.p.
Description: B. […] On testing days, each subject received three tests: a social behavior test with a female, a social behavior test with a male, and an open-field test. There was a 30-minute interval between each test. Social behavior was tested using a variant of the resident-intruder paradigm, in which a stimulus animal was introduced into the subject's homecage for three minutes. Prior to testing the subjects' home cages were not changed for at least four days to allow them to establish the cage as their territory. Female stimulus animals were singly-housed, randomly cycling C57BI/6Js (Jackson Laboratories, Bar Harbor, Me.). Each subject was tested with a different stimulus animal and each stimulus animal was used only once per testing day. Male stimulus animals were singly-housed C57BI/6Js (Jackson Laboratories, Bar Harbor, Me.). Each subject was tested with a different stimulus animal and each stimulus animal was used only once per testing day. A stimulus female was placed into the cage of wild-type (n=8) and tk-/- (n=8) subjects. After three minutes, the stimulus female was removed. Thirty minutes later a stimulus male was placed into the subject's homecage. […] The behavior of the subject was quantified from the videotape using the Observer Mobile (Noldus Information Technologies, Sterling, Va.). […] Movement was analyzed in detail using the Clever Sys. […]

[4] = tested on: Sprague-Dawley rats; assay: Apomorphine-induced impairment of pre-pulse inhibition; assay type: in vivo, rat; details: haloperidol 0.3 mg/kg i.p., apomorphine 1.0 mg/kg s.c., p<0.001
[5] = db/db mice with fat diet, vs vehicle-treated mice

SMILES: Cc1ccc(C(=O)N[C@@H]2C3CCN(CC3)[C@H]2Cc2cccnc2)s1 [Compound B, (2S,3R)—N-(2-((3-pyridinyl)methyl)-1-azabicyclo[2.2.2]oct-3-yl)-5-methylthiophene-2-carboxamide]
- blood glucose levels [1, 5]: significantly decreases
- body weight gain [1, 5]: significantly decreases
- time at which effects on glucose and weight gain become apparent ([1]; db/db mice, weeks of treatment): 6 weeks
- sensory gating (PPI and acoustic startle response) ([2]; control (normal) mice, Compound B): no effect on control
- deficits in sensory gating (PPI and acoustic startle response) ([2]; th(tk-)/th(tk-) mice, Compound B (0.1 and 1.0 mg/kg analyzed)): reverse deficits in sensory gating

SMILES: COc1cccc([C@H](O)C2CCN(CCc3ccc(F)cc3)CC2)c1OC [Compound M100907]
- time spent investigating the stimulus animal ([3]; TK- mice): significantly increased
- investigation time of stimulus animal ([3]; wild-type animals): no effect on investigation time
- PPI ([2]; control mice, M100907 any dose): no effect at any dose
- startle response ([2]; control mice, M100907 any dose): no effect at any dose
- PPI ([2]; transgenic mice, M100907 middle (0.1 mg/kg) and high (1 mg/kg) doses vs vehicle): increases of PPI
- startle response ([2]; treated transgenic groups vs vehicle, M100907): significant decrease of startle response

SMILES: CN1CCN(C2=Nc3cc(Cl)ccc3Nc3ccccc32)CC1 [clozapine]
- PPI ([2]; clozapine 3 mg/kg): no effect
- startle response ([2]; clozapine 3 mg/kg): no effect

SMILES: OCCN1CCN(CC/C=C2/c3ccccc3Sc3ccc(C(F)(F)F)cc32)CC1 [flupenthixol]
- startle response ([2]; control mice, flupenthixol 1.0 mg/kg vs saline): decreased
- PPI ([2]; control mice, flupenthixol 0.25, 0.5, 1.0 mg/kg): no effect of dose
- startle response ([2]; th(tk-)/th(tk-) mice, flupenthixol 1.0 mg/kg vs saline): decreased
- PPI ([2]; th(tk-)/th(tk-) mice, flupenthixol 0.25, 0.5, 1.0 mg/kg, all three stimulus intensities, P<0.01): increased PPI

SMILES: O=C(CCCN1CCC(O)(c2ccc(Cl)cc2)CC1)c1ccc(F)cc1 [haloperidol, reference compound]
- PPI deficits induced by apomorphine [4]: significantly reversed

SMILES: OCCOCCN1CCN(C2=Nc3ccccc3Sc3ccccc32)CC1 [quetiapine]
- startle response ([2]; control mice, quetiapine any dose): no main effect
- PPI ([2]; control mice, quetiapine any dose examined): no significant main effect
- PPI ([2]; th(tk-)/th(tk-) mice, quetiapine 7.0 mg/kg, p<0.001): normalized the reduced PPI
- PPI ([2]; th(tk-)/th(tk-) mice, quetiapine lower doses (below 7.0 mg/kg)): no effect
- startle response ([2]; transgenic mice, all doses of quetiapine vs saline, p<0.05): significant decrease in startle response
- PPI, main effect ([2]; transgenic th(tk-)/th(tk-) mice, quetiapine 3.0 mg/kg alone): no significant main effect
